Laboratory results reported in US9353072B2, “Antimicrobial substituted thiazoles and methods of use” (Purdue Research Foundation, priority 2012, dated 2016).
≈ marks a conversion by molar mass, not a printed value. Like-named read-outs stand apart in the source and are kept apart here.

Tests used:
MRSA USA400 (NRS123) = experiment: MIC/MBC broth microdilution, NRS123 (USA400); assay type: cell-based; details: Staphylococcus aureus
Protocol: (§1) Determination of minimum inhibitory concentration (MIC). The MICs of the lead thiazole compound (compound 1a) and nine derivatives tested against all 18 MRSA strains were determined, in triplicate samples, using the broth microdilution method in accordance with the recommendations contained in the CLSI guidelines.

MRSA NRS384 (USA300) = experiment: MIC/MBC broth microdilution, NRS384 (USA300); assay type: cell-based; details: Staphylococcus aureus
Protocol: as §1

[1] = system: MRSA ATCC 700699 (NRS1, VISA); experiment: MIC/MBC broth microdilution, NRS1 (ATCC 700699); assay type: cell-based; details: Staphylococcus aureus
Protocol: as §1

MRSA USA500 (NRS385) = experiment: MIC/MBC broth microdilution, NRS385 (USA500); assay type: cell-based; details: Staphylococcus aureus
Protocol: as §1

VISA HIP07256 (NRS19) = experiment: MIC/MBC broth microdilution, NRS19 (VISA HIP07256); assay type: cell-based; details: Staphylococcus aureus
Protocol: as §1

MRSA ATCC 43300 = experiment: MIC/MBC broth microdilution, MRSA ATCC 43300; assay type: cell-based, Staphylococcus aureus; details: Staphylococcus aureus
Protocol: as §1

NRS194 = experiment: MIC/MBC broth microdilution, NRS194; assay type: cell-based; details: Staphylococcus aureus; for MIC: Table 8, read-out: MIC
Protocol: as §1

NRS119 = experiment: MIC/MBC broth microdilution, NRS119; assay type: cell-based; details: Staphylococcus aureus, Table 8, NRS119; for MIC: read-out: MIC
Protocol: as §1

VISA LIM 3 (NRS37) = experiment: MIC/MBC broth microdilution, NRS37 (VISA LIM 3); assay type: cell-based; details: Staphylococcus aureus, Table 8, NRS37 (VISA); for MIC: read-out: MIC
Protocol: as §1

NRS107 = experiment: MIC/MBC broth microdilution, NRS107; assay type: cell-based; details: Staphylococcus aureus; for MIC: Table 8, read-out: MIC
Protocol: as §1

[2] = Table 6, MRSA ATCC 43300, 128 μM down to 1.0 μM, 20 hours, read-out: MIC
[3] = Table 8, NRS1 (VISA), triplicates, 20 hours, read-out: MIC
[4] = Table 8, ATCC 43300, read-out: MIC
[5] = Table 8, NRS19 (VISA), read-out: MIC

MIC (MRSA ATCC 43300; [2]) [µM]	MIC (NRS194) [µM]	MIC (MRSA USA400 (NRS123); Table 8, NRS123, read-out: MIC) [µM]	MIC (MRSA NRS384 (USA300); Table 8, NRS384, read-out: MIC) [µM]	MIC [1, 3] [µM]	MIC (NRS119) [µM]	MIC (MRSA USA500 (NRS385); Table 8, NRS385, read-out: MIC) [µM]	MIC (VISA LIM 3 (NRS37)) [µM]	MIC (NRS107) [µM]	MIC (MRSA ATCC 43300; [4]) [µM]	MIC (VISA HIP07256 (NRS19); [5]) [µM]	SMILES	further results
–	–	–	–	–	–	–	–	–	–	–	CCCCCCCCCc1ccc(-c2nc(C)c(/C(C)=N/NC(=N)N)s2)cc1 [Compound 1f]	MIC (MRSA USA400 (NRS123); Table 2, MRSA USA400, read-out: Minimum Inhibitory Concentration): 4.4 mg/L; MIC (MRSA NRS384 (USA300); Table 2, MRSA USA300, read-out: Minimum Inhibitory Concentration): 2.2 mg/L; MIC ([1]; Table 2, MRSA ATCC 700699, read-out: Minimum Inhibitory Concentration): 1.1 mg/L; MIC (MRSA USA500 (NRS385); Table 2, MRSA USA500, read-out: Minimum Inhibitory Concentration): 4.4 mg/L; MIC (VISA HIP07256 (NRS19); Table 2, VISA HIP07256, read-out: Minimum Inhibitory Concentration): 2.2 mg/L
> 128	–	–	–	–	–	–	–	–	–	–	CCCCc1ccc(-c2nc(C)c(/C(C)=N/NC(=N)N/N=C(\C)c3sc(-c4ccc(CCCC)cc4)nc3C)s2)cc1 [Compound M1]	–
> 128	128 (≈ 36.9 µg/mL)	128	128	64	64 (≈ 18.5 µg/mL)	128	64 (≈ 18.5 µg/mL)	64 (≈ 18.5 µg/mL)	128 (≈ 36.9 µg/mL)	128	C/C(=N\NC(=N)N)c1sc(-c2ccc(N)cc2)nc1C [Compound M2, (E)-2-(1-(2-(4-aminophenyl)-4-methylthiazol-5-yl)ethylidene)hydrazinecarboximidamide]	MBC (NRS194; Table 8, read-out: MBC): 128 µM (≈ 36.9 µg/mL); MBC (MRSA USA400 (NRS123); Table 8, NRS123, read-out: MBC): 128 µM (≈ 36.9 µg/mL); MBC (MRSA NRS384 (USA300); Table 8, NRS384, read-out: MBC): 128 µM (≈ 36.9 µg/mL); MBC ([1]; Table 8, NRS1 (VISA), read-out: MBC): 128 µM (≈ 36.9 µg/mL); MBC (NRS119; read-out: MBC): 64 µM (≈ 18.5 µg/mL); MBC (MRSA USA500 (NRS385); Table 8, NRS385, read-out: MBC): 128 µM (≈ 36.9 µg/mL); MBC (VISA LIM 3 (NRS37); read-out: MBC): 128 µM (≈ 36.9 µg/mL); MBC (NRS107; Table 8, read-out: MBC): 64 µM (≈ 18.5 µg/mL); MBC (MRSA ATCC 43300; Table 8, ATCC 43300, read-out: MBC): 128 µM (≈ 36.9 µg/mL); MBC (VISA HIP07256 (NRS19); Table 8, NRS19 (VISA), read-out: MBC): 128 µM (≈ 36.9 µg/mL)
> 128	–	–	–	–	–	–	–	–	–	–	C/C(=N\NC(=N)N/N=C(\C)c1sc(-c2ccc(N)cc2)nc1C)c1sc(-c2ccc(N)cc2)nc1C [Compound M3]	–
> 128	–	–	–	–	–	–	–	–	–	–	CC(=O)c1sc(-c2ccc(-c3ccc(O)cc3)cc2)nc1C [Compound M4, 1-(2-(4′-hydroxy-[1,1′-biphenyl]-4-yl)-4-methylthiazol-5-yl)ethanone]	–
> 128	–	–	–	–	–	–	–	–	–	–	C/C(=N/NC(=N)N)c1sc(-c2ccc(-c3ccc(O)cc3)cc2)nc1C [Compound M5, (Z)-2-(1-(2-(4′-hydroxy-[1,1′-biphenyl]-4-yl)-4-methylthiazol-5-yl)ethylidene)hydrazinecarboximidamide]	–
> 128	> 128	> 128	> 128	> 128	> 128	> 128	> 128	> 128	> 128	> 128	CC(=O)c1sc(-c2ccc(-c3cccc4ccccc34)cc2)nc1C [Compound M6, 1-(4-methyl-2-(4-(naphthalen-1-yl)phenyl)thiazol-5-yl)ethanone]	–
> 128	–	–	–	–	–	–	–	–	–	–	CC(=O)c1sc(-c2ccc(-c3cc(C)cc(C)c3)cc2)nc1C [Compound M7, 1-(2-(3′,5′-dimethyl-[1,1′-biphenyl]-4-yl)-4-methylthiazol-5-yl)ethanone]	–
> 128	> 128	> 128	> 128	> 128	> 128	> 128	> 128	> 128	> 128	> 128	CC(=O)c1sc(-c2ccc(-c3ccc(F)cc3)cc2)nc1C [Compound M8, 1-(2-(4′-fluoro-[1,1′-biphenyl]-4-yl)-4-methylthiazol-5-yl)ethanone]	–
> 128	> 128	> 128	> 128	> 128	> 128	> 128	> 128	> 128	> 128	> 128	CC(=O)c1ccc(-c2ccc(-c3nc(C)c(C(C)=O)s3)cc2)cc1 [Compound M9, 1-(4′-(5-acetyl-4-methylthiazol-2-yl)-[1,1′-biphenyl]-4-yl)ethanone]	–
> 128	> 128	> 128	> 128	> 128	> 128	> 128	> 128	> 128	> 128	> 128	CC(=O)c1sc(-c2ccc(-c3ccc(C(F)(F)F)cc3)cc2)nc1C [Compound M10, 1-(4-methyl-2-(4′-(trifluoromethyl)-[1,1′-biphenyl]-4-yl)thiazol-5-yl)ethanone]	–
–	–	–	–	–	–	–	–	–	–	–	CC(=O)c1sc(-c2cccc(F)c2)nc1C [Compound M15, 1-(2-(3-fluorophenyl)-4-methylthiazol-5-yl)ethanone]	MIC (MRSA ATCC 43300; 20 h): > 128 µM
–	–	–	–	–	–	–	–	–	–	–	CCCCCCCC#Cc1ccc(-c2nc(C)c(/C(C)=N\NC(=N)N/N=C(\C)c3sc(-c4ccc(C#CCCCCCCC)cc4)nc3C)s2)cc1 [Compound M18]	MIC (MRSA ATCC 43300; 20 h): > 128 µM
